# Measurements taken from US20060004088A1, “Furan derivatives for preventing and curing osteoporosis and pharmaceutical compositions containing the same” (OCT INC., priority 2002, published 2006).
# Assays:
# MG-63 osteoblasts = assay: Proliferation of MG-63 osteoblasts (3H-thymidine incorporation); format: cell-based, human; conditions: for Proliferation rate of MG-63 cells, %: 1% FBS, untreated control = 100; for proliferation rate of osteoblasts compared to a control not treated: text summary, concentration not stated
# From the text: (§1) In the following tests, three kinds of cell lines were used. The human osteosarcoma cell lines, MG-63 (ATCC No. CRL-1427) and HOS (ATCC No. CRL-1543), and mouse muscle C2C12 muscle cells (ATCC No. CRL-1772) were purchased from ATCC (American Type Culture Collection, Rockville, USA), and cultured in Dulbecco's modified Eagle's medium (DMEM) supplemented with 10% fetal bovine serum (FBS).
# In order to indirectly evaluate cytotoxicity of the Compound 1 and investigate effect of the Compound 1 naturally extracted on obsteoblast proliferation, proliferation of MG-63 osteoblasts was investigated by measuring the amount of ^3H-thymidine incorporated into cellular DNA upon DNA replication. The cells were aliquotted onto 24-well plates at a density of 2×10^4 cells per well. The next day, after exchanging culture medium to medium containing 1% FBS, the cells were treated with the compound 1 serially diluted at various concentrations and further cultured for 48 hrs. Four hours before finishing the culture of 48 hrs, ^3H-thymidine was added to the medium in an amount of 3 μCi per well. The cells were washed with phosphate buffer, and treated with 5% trichloroacetic acid (TCA) pre-cooled on ice. Each of the separated TCA-insoluble fractions was dissolved in 0.1 M NaOH. With a portion of each fraction, ^3H-thymidine uptake by the cells was measured using a liquid scintillation counter.
# osteoprotegerin (OPG) = assay: Osteoprotegerin (OPG) expression in MG63 cells, OPG ELISA; format: cell-based, human; conditions: for OPG expression level in MG63 cells, %: control = 100
# Method: as §1
# When MG63 cells grew confluently on 96-well plates, […] of FBS-free DMEM containing various concentrations of the Compound 1 was added to each well. After incubation for 16 hrs, the culture supernatants were collected. The amount of OPG released into the medium was determined using an OPG ELISA kit.
# [1] = system: alkaline phosphatase (ALP) in HOS cells; assay: Alkaline phosphatase (osteoblast marker enzyme) activity in HOS cells; format: cell-based, human; conditions: text summary, concentration not stated
# From the text: as §1
# To examine whether the Compound 1 affects positively or negatively osteoblast activity, alkaline phosphatase (ALP) activity was measured. HOS cells were aliquotted onto a 96-well microplate at a density of 5×10^3 cells per well, and cultured. When forming a monolayer, the cells were treated with the naturally extracted compound (Compound 1) at prescribed concentrations. After incubation in 10% FBS-containing DMEM for 48 hrs, the cells were treated with 0.1% Triton X-100/saline for 30 min at 37° C. A portion of each cell lysate was reacted with 0.1 N glycine-NaOh buffer (pH 10.4) for 30 min at 37° C. in the presence of 100 mM nitrophenyl phosphate (PNPP) as a substrate of alkaline phosphate. The amount of PNP (ρ-nitrophenol) released from the substrate PNPP was determined by measuring absorbance at 405 nm. Protein amount was determined by a modified Lowry method, and enzyme activity was designated as nmol substrate cleaved/h/mg protein.
# [2] = system: ovariectomized female white mice with onset of osteoporosis; assay: Therapeutic effect on osteoporosis, bone mineral densitometer; format: in vivo
# Method: After ovariectomy, female white mice weighing about 250 g were bred for four weeks. After checking the onset of osteoporosis in the mice, each of the mice was orally administered with 220 μl of the Compound 1 dissolved in 30 ml water for four weeks.
# BMD measurement was performed before ovariectomy and every week for eight weeks after ovariectomy, using a bone mineral densitometer, XCT 540 Research SA made in Germany.
# After anesthetizing the mice being bred in cages by intraperitoneal injection of a mixture of Ketamine HCl (ketara 10 mg/kg) and 2% xylazine HCl (Roupun 0.15 ml/kg), BMD measurement was made at a voxel size of 0.1×0,1 mm^2 and threshold values of 280 mg/cm^2 for cancellous bone and 500 mg/cm^2 for compact bone. The analysis sites at the proximal tibias were determined by Scout scans (10 mm/sec), and BMD was measured at three slices at the determined sites by CT scans (7 mm/sec). BMD measurement was performed twice or more at the same site every week during eight weeks after ovariectomy.
smiles,measurement,setting,value
"O=Cc1ccc(CO)o1 [Compound 1, 5-hydroxymethylfuran-2-carboxyaldehyde]","Proliferation rate of MG-63 cells, %","MG-63 osteoblasts; 10^−4 M Compound 1, 48 hrs",105.50 ± 5.90%
same,"Proliferation rate of MG-63 cells, %","MG-63 osteoblasts; 10^−5 M Compound 1, 48 hrs",102.63 ± 8.53%
same,"Proliferation rate of MG-63 cells, %","MG-63 osteoblasts; 10^−6 M Compound 1, 48 hrs",105.56 ± 5.49%
same,"Proliferation rate of MG-63 cells, %","MG-63 osteoblasts; 10^−7 M Compound 1, 48 hrs",103.91 ± 5.81%
same,"Proliferation rate of MG-63 cells, %","MG-63 osteoblasts; 10^−8 M Compound 1, 48 hrs",101.38 ± 4.65%
same,proliferation rate of osteoblasts compared to a control not treated,MG-63 osteoblasts,over 105%
same,proliferation rate of osteoblasts compared to a control not treated,MG-63 osteoblasts; listed as Example 1,≥ 105%
same,effect on expression of osteoprotegerin (OPG) in osteoblasts (in words),osteoprotegerin (OPG),increases the expression of osteoprotegerin (OPG)
same,"OPG expression level in MG63 cells, %","osteoprotegerin (OPG); 10^−6 M Compound 1, 16 hrs",866.90 ± 10.59%
same,"OPG expression level in MG63 cells, %","osteoprotegerin (OPG); 10^−8 M Compound 1, 16 hrs",204.30 ± 14.96%
same,alkaline phosphatase activity compared to a control not treated,[1],about 121%
same,alkaline phosphatase activity compared to a control not treated,[1]; listed as Example 1,120%
same,decrease of BMD compared to that before the ovariectomy,[2]; control about 22%,about 15%
same,reduction of BMD compared to a control (in words),[2]; oral 220 μl/day for four weeks after four weeks of osteoporosis development,very slight reduction of BMD
same,"Change in BMD, %","[2]; week 1 after ovariectomy (administration begins after week 4), control −3",−2.9%
same,"Change in BMD, %","[2]; week 2 after ovariectomy (administration begins after week 4), control −10",−10.5%
same,"Change in BMD, %","[2]; week 3 after ovariectomy (administration begins after week 4), control −15",−14%
same,"Change in BMD, %","[2]; week 4 after ovariectomy (administration begins after week 4), control −19",−17%
same,"Change in BMD, %","[2]; week 5 after ovariectomy, oral 220 μl in 30 ml water from week 4, control −21.8",−16.5%
same,"Change in BMD, %","[2]; week 7 after ovariectomy, oral 220 μl in 30 ml water from week 4, control −25.9",−19%
same,"Change in BMD, %","[2]; week 8 after ovariectomy, oral 220 μl in 30 ml water from week 4, control −32",−21.4%
